From patent US20140155397A1, “EMT SIGNATURES AND PREDICTIVE MARKERS AND METHOD OF USING THE SAME” (Board of Regents, priority 2011, published 2014)

Tests used:
Assay in all cases: Protein kinase panel
Assay type in all cases: biochemical
Flt1 = Flt1 (Homo sapiens, UniProt P17948)
Description: (§1) Purified recombinant AXL kinase was used to screen a library of structures with appropriate drug-like scaffolds to identify potential inhibitors. Hits from the screen were confirmed and r analyzed by selection criteria including Lipinski rules. One pyrrolopyrimidine-based compound was selected for structure-activity relationship efforts. Optimization of this scaffold and subsequent evaluation led to the generation of compound SG1-7079 as the lead candidate inhibitor (FIG. 10). […] SGI-7079 was screened against a panel of protein kinases to determine both selectivity and biochemical potency.

Flt3 = target: T1, Flt3 (Homo sapiens, UniProt P36888)
T1 sequence (P36888 27-993): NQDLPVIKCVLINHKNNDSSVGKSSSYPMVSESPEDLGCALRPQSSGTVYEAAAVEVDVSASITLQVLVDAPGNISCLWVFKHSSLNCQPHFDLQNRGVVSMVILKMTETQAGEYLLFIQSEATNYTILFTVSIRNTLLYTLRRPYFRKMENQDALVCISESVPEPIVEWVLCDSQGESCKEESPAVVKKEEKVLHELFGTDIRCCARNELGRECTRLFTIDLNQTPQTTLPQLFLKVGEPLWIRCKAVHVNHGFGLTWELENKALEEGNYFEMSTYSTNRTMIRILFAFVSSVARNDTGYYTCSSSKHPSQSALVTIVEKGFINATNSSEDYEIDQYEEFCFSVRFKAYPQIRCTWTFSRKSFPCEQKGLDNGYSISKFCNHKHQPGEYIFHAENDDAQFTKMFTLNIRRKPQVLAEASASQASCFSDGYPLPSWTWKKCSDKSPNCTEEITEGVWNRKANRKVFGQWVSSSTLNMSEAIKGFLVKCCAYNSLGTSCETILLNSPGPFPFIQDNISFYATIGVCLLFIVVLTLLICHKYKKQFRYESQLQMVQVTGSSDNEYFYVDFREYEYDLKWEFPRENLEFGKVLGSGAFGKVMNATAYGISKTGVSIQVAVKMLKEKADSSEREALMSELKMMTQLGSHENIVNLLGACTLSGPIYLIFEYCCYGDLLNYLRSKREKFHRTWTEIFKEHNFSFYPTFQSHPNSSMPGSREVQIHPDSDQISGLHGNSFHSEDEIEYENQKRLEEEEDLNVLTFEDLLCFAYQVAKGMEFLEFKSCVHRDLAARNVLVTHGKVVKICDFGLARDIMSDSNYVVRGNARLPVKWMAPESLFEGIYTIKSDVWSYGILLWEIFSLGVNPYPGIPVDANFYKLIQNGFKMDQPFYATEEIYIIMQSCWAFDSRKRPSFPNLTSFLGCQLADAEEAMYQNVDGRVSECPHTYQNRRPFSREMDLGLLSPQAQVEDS
Description: as §1

Jak2 = Jak2 (Homo sapiens, UniProt O60674)
Description: as §1

PDGFRβ = PDGFRβ (Homo sapiens, UniProt P09619)
Description: as §1

Ret = Ret (Homo sapiens, UniProt P07949)
Description: as §1

TrkA = TrkA (Homo sapiens, UniProt P04629)
Description: as §1

TrkB = TrkB (Homo sapiens, UniProt Q16620)
Description: as §1

Tyro3 = target: T2, Tyro3 (Homo sapiens, UniProt Q06418)
T2 sequence (Q06418 41-890): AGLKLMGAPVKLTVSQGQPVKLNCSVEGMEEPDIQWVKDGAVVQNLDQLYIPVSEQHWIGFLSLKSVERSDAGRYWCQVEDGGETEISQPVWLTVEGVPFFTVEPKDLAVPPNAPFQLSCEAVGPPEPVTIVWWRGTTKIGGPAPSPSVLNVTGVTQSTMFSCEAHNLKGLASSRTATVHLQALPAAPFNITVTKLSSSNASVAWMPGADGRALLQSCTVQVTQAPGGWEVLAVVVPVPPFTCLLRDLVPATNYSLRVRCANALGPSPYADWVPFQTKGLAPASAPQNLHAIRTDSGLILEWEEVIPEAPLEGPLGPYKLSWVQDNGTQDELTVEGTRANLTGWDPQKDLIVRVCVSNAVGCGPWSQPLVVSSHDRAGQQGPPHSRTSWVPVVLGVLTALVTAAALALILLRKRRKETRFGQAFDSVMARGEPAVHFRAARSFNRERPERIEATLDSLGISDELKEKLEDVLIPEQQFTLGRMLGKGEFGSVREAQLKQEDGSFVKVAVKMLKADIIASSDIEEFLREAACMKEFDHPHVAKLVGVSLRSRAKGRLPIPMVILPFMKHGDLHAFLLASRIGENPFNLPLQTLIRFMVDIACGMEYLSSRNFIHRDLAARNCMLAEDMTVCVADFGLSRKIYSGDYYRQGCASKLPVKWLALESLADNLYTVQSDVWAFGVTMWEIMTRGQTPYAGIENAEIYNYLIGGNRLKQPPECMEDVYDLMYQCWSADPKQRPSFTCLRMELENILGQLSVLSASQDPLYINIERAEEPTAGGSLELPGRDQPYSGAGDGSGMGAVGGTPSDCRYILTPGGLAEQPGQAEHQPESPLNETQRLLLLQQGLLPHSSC
Description: as §1

Chain of Ret (P07949 29-1114, species assumed): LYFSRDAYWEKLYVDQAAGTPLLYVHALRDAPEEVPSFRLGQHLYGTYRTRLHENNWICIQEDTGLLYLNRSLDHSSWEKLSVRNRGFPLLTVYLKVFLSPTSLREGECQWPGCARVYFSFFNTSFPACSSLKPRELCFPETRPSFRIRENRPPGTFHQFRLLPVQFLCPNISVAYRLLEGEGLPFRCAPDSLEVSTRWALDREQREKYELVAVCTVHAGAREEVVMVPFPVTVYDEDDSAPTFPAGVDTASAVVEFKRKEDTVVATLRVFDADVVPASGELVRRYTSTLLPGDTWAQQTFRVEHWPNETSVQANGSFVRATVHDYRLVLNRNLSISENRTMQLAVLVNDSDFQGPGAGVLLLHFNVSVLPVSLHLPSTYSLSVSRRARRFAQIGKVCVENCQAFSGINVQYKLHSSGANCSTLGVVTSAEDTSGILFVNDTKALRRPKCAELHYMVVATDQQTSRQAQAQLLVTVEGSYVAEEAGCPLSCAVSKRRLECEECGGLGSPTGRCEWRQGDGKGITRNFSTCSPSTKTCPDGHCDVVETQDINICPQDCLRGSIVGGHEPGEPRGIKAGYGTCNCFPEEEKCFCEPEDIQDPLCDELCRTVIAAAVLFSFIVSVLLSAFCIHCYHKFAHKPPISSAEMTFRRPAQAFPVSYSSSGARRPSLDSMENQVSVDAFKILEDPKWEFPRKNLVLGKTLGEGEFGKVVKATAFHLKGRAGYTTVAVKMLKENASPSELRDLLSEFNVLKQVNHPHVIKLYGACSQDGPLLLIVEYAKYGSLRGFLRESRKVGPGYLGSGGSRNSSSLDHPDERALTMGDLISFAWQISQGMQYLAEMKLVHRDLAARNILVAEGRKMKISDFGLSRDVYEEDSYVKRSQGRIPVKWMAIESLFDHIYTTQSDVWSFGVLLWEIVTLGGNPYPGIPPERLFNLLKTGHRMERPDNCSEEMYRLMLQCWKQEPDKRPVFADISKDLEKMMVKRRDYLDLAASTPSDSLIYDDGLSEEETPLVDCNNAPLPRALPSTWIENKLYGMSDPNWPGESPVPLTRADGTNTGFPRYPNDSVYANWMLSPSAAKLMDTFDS
Chain of TrkB (Q16620 32-822, species assumed): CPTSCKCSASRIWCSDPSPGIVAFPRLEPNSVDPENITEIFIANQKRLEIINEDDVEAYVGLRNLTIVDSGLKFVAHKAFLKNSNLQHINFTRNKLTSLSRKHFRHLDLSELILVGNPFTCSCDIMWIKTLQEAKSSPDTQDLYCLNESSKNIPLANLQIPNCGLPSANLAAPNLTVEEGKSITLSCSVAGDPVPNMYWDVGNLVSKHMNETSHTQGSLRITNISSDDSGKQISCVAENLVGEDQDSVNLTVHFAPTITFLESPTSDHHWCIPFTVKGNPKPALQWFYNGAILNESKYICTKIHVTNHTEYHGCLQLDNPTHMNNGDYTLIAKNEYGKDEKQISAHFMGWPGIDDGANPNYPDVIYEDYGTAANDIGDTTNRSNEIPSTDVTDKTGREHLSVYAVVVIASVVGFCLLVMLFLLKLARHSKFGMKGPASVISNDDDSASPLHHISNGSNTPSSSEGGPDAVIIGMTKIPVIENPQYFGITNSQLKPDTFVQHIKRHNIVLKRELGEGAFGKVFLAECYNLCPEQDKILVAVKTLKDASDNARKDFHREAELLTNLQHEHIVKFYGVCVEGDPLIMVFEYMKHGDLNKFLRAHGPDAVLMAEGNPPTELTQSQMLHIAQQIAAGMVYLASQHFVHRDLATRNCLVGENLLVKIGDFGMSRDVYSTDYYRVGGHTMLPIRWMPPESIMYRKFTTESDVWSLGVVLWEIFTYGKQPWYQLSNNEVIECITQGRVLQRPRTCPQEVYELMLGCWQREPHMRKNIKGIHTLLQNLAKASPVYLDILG
Chain of PDGFRβ (P09619 33-1106, species assumed): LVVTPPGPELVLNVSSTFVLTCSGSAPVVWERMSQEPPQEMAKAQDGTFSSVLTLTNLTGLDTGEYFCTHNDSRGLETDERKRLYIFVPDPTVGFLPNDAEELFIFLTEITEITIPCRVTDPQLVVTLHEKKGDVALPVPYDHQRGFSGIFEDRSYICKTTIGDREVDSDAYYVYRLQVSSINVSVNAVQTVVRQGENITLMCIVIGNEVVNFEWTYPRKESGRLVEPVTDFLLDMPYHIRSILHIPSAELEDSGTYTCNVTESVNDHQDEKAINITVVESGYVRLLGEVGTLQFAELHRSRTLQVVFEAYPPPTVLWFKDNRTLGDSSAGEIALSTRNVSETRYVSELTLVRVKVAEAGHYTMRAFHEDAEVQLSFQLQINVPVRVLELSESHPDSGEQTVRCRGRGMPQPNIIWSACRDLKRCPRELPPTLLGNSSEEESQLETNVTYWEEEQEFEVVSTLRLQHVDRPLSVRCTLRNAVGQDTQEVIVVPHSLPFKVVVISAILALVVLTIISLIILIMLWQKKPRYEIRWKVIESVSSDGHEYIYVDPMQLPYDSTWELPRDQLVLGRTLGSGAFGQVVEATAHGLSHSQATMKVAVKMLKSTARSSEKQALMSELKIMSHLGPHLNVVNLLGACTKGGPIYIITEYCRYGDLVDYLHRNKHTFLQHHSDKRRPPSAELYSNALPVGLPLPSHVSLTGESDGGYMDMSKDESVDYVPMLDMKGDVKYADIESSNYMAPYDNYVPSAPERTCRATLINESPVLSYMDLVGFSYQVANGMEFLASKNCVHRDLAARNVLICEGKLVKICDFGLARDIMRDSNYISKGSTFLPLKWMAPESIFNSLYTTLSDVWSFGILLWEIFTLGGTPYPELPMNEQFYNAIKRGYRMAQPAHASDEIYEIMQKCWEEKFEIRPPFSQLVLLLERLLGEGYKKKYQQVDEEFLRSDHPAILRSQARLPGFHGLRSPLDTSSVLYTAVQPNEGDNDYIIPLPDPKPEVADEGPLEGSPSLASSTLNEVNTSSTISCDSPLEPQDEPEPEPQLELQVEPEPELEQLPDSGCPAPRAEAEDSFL
Chain of Jak2 (O60674 whole entry, species assumed): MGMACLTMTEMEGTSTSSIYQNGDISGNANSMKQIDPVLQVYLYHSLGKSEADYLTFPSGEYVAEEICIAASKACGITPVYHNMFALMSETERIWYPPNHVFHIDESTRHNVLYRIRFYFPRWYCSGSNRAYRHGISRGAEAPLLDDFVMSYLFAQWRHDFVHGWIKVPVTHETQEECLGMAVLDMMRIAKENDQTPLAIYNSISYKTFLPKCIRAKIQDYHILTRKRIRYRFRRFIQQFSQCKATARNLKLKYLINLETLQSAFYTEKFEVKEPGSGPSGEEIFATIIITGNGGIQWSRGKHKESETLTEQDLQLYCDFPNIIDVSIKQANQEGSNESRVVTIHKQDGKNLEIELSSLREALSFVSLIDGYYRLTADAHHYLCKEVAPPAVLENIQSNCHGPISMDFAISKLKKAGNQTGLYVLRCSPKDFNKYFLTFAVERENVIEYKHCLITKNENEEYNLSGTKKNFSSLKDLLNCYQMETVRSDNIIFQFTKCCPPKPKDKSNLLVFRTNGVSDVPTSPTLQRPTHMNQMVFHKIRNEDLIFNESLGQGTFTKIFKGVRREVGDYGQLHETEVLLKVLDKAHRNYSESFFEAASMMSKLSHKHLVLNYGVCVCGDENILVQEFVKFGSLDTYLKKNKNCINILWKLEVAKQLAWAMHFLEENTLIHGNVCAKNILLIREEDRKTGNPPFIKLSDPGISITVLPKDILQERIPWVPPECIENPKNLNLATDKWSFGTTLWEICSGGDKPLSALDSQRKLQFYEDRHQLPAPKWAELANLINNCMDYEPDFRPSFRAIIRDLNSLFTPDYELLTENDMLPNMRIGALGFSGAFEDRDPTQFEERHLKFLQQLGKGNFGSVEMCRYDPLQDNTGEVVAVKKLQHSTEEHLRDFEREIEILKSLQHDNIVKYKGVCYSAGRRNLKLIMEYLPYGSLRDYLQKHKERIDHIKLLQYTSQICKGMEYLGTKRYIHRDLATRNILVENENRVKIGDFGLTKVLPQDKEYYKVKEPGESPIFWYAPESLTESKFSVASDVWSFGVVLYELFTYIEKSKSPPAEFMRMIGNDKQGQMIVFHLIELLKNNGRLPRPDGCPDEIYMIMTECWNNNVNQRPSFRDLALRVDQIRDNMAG
Chain of TrkA (P04629 33-796, species assumed): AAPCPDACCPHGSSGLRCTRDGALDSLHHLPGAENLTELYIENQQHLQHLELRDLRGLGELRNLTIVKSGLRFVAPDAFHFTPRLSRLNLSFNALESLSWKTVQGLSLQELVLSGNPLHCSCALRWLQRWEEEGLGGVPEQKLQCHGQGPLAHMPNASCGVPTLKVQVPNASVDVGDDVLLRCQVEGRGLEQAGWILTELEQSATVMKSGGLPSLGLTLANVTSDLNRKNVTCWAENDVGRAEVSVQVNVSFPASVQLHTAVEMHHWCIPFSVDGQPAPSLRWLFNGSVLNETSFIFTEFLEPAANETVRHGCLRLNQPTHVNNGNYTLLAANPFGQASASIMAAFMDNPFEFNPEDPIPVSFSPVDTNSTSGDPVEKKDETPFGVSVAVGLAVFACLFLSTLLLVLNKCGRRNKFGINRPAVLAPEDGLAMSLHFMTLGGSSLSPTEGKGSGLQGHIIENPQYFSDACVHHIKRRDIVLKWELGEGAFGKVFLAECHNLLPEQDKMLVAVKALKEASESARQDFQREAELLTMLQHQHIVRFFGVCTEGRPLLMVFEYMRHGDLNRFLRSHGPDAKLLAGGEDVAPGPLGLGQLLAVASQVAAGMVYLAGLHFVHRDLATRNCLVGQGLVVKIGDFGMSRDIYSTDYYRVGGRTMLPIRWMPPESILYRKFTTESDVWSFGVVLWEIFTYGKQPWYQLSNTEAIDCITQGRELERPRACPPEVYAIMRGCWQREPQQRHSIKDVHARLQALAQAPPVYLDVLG

Cc1c[nH]c2nc(Nc3ccc(N4CCN(C)CC4)c(F)c3)nc(-c3cccc(CC#N)c3)c12 [SGI-7079]
similarly as AXL: Inhibition of Tyro3 (Tyro3)
potent, low nM inhibition: Inhibition of Flt1 (Flt1) | Inhibition of Flt3 (Flt3) | Inhibition of Jak2 (Jak2) | Inhibition of PDGFRβ (PDGFRβ) | Inhibition of Ret (Ret) | Inhibition of TrkA (TrkA) | Inhibition of TrkB (TrkB)
